Assay results: ChEMBL document CHEMBL6078692, “Discovery of PF-07265028, A Selective Small Molecule Inhibitor of Hematopoietic Progenitor Kinase 1 (HPK1) for the Treatment of Cancer” (J Med Chem, 2024)
In brackets after ≈: the same amount, converted by molar mass.

Legend:
[1] = Permeability in RRCK cells; assay type: ADME, cell-based, Canis lupus familiaris, MDCKII-LE; details: dog, MDCK; read-out: permeability
Homo sapiens = species on record: Homo sapiens; assay: Selectivity ratio of Ki for N-terminal 6xHis-tagged human recombinant full-length LCK to Ki for full-length recombinant human HPK1 (1 to 182 residues) expressed in baculovirus infected Sf21 cells
[2] = Cytotoxicity against PBMC (unknown origin) assessed as inhibition of ATP level incubated for 3 days by Cell Titer Glo assay; assay type: toxicity, cell-based
[3] = Intrinsic clearance in human hepatocytes measured per million cells at 1 uM measured for 240 mins by LC-MS/MS analysis; assay type: ADME, cell-based, Hepatocyte; details: read-out: CLH
[4] = Lipophilicity, logD of compound in octanol/water by shake flask method; assay type: physicochemical
[5] = target: Mitogen-activated protein kinase kinase kinase kinase 1 (Homo sapiens, UniProt Q92918); assay: Inhibition of full-length recombinant human HPK1 (1 to 182 residues) extracted from baculovirus infected Sf21 cells using phospho-acceptor peptide as substrate incubated for 15 mins in presence of ATP by fluorescence based assay
[6] = Kinetic solubility of compound at pH 7.4 incubated for 24 hrs by MS/MS analysis; assay type: physicochemical; details: buffer, read-out: Kinetic_solubility
[7] = Selectivity ratio of IC50 for cytotoxicity against PBMC (unknown origin) assessed as inhibition of ATP level incubated for 3 days by Cell Titer Glo assay to IC50 for inhibition of SLP76 phosphorylation at Ser376 in human Jurkat cells incubated for 30 mins by HTRF assay; assay type: toxicity, cell-based; details: read-out: Ratio IC50
[8] = Induction of IL-2 production in human T cells pretreated for 30 mins followed by anti-CD3/CD28 stimulation for 24 hrs by MSD analysis; assay type: functional, cell-based; details: T-cell
[9] = Tmax in monkey at 1 mg/kg, po or 0.5 mg/kg, iv; assay type: ADME, organism-based, Macaca mulatta; details: rhesus monkey, in vivo
[10] = Terminal half life in monkey at 1 mg/kg, po or 0.5 mg/kg, iv; assay type: ADME, organism-based, Macaca mulatta; details: rhesus monkey, in vivo, read-out: beta t1/2 (converted)
[11] = Oral bioavailability in monkey at 1 mg/kg, po; assay type: ADME, organism-based, Macaca mulatta; details: rhesus monkey, in vivo
[12] = Clearance in monkey at 1 mg/kg, po or 0.5 mg/kg, iv; assay type: ADME, organism-based, Macaca mulatta; details: rhesus monkey, in vivo
[13] = Oral bioavailability in mouse at 15 mg/kg, po; assay type: ADME, organism-based; details: in vivo
[14] = Unbound clearance in monkey at 1 mg/kg, po or 0.5 mg/kg, iv; assay type: ADME, organism-based, Macaca mulatta; details: rhesus monkey, in vivo
[15] = Volume of distribution at steady state in monkey at 1 mg/kg, po or 0.5 mg/kg, iv; assay type: ADME, organism-based, Macaca mulatta; details: rhesus monkey, in vivo
[16] = Terminal half life in mouse at 15 mg/kg, po or 1 mg/kg, iv; assay type: ADME, organism-based; details: in vivo, read-out: beta t1/2 (converted)
[17] = Unbound clearance in mouse at 15 mg/kg, po or 1 mg/kg, iv; assay type: ADME, organism-based; details: in vivo
[18] = Volume of distribution at steady state in mouse at 15 mg/kg, po or 1 mg/kg, iv; assay type: ADME, organism-based; details: in vivo
[19] = Tmax in mouse at 15 mg/kg, po or 1 mg/kg, iv; assay type: ADME, organism-based; details: in vivo
[20] = Clearance in mouse at 15 mg/kg, po or 1 mg/kg, iv; assay type: ADME, organism-based; details: in vivo
[21] = Stability in human plasma assessed as half life measured for 120 mins by LC-MS/MS analysis; assay type: ADME, cell-free

Chain of Mitogen-activated protein kinase kinase kinase kinase 1 (Q92918 whole entry, the tested form may be a part): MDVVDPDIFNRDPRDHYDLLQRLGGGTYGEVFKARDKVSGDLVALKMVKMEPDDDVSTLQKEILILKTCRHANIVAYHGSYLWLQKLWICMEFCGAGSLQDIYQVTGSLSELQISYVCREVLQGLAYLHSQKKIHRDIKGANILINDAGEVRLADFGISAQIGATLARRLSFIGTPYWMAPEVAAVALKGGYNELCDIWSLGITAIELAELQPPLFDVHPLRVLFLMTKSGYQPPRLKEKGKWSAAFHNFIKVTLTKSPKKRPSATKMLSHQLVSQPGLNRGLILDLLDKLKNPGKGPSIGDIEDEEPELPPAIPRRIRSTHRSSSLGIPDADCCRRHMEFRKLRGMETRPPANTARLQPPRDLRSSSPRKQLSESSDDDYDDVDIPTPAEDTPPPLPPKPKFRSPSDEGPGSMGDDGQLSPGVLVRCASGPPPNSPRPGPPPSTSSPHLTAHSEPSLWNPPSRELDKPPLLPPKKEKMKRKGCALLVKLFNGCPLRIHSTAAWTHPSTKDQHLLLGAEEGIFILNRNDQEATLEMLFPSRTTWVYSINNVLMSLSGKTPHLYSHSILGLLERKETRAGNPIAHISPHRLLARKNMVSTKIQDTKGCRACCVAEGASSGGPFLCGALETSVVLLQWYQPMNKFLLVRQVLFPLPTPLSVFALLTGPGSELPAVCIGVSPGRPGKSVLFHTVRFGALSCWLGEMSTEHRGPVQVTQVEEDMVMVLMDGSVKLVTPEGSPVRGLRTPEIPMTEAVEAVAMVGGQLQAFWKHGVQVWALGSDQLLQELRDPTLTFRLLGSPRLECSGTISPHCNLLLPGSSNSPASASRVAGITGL

SMILES	Papp [1] [nm/s]	Ratio Ki (Homo sapiens)	IC50 at 3 days [2] [nM]	hepatocyte CLint at 1 µM [3] [µL/min/1e6 cells]	logD [4]	IC50 [5] [nM]	selectivity ratio at 3 days [7]	EC50 [8] [nM]	other results
CNCc1cc(OC)cc2c1CN(c1cccc(-c3nncn3[C@@H](C)CC(F)(F)F)n1)C2=O	204	210	487	11	1.6	0.3	4		solubility kinetic at 24 h [6]: 202 µM (≈ 93 µg/mL)
CC(C)n1cnnc1-c1cccc(NC(=O)c2cccc3c2nc(CN)n3C)n1		> 45			1.7	10			
CC[C@H]1CCc2nnc(-c3cccc(N4Cc5c(cc(N(C)C(C)C)nc5CNC)C4=O)n3)n21			500		2.2	< 0.06	13	116	
CCCn1cnnc1-c1cccc(N2Cc3c(cc(N4CCC[C@H]4C)nc3CNC)C2=O)n1	151		1100	23	2.1	< 0.06	32	38	
C[C@@H]1CCCN1c1cc2c(c([C@@H](C)N)n1)CN(c1cccc(-c3nnc4n3[C@@H](C)CC4)n1)C2=O			1100		2.3	< 0.05	21	62	
CNCc1nc(N(C)C(C)C)cc2c1CN(c1cccc(-c3nnc4n3[C@@H](CF)CC4)n1)C2=O			1300		1.6	0.07	25	64	
CNCc1nc(N(C)C(C)C)cc2c1CN(c1cccc(-c3nnc4n3[C@@H](C)CC4)n1)C2=O			500		1.9	< 0.05	11	47	
CC(C)n1cnnc1-c1cccc(NC(=O)c2cccc3c2OCC(N)C3)n1 (stereo not drawn)		> 65			1.2	7.7			
CCCn1c(C)nnc1-c1cccc(N2Cc3c(cc(N(C)C(C)C)nc3CNC)C2=O)n1			> 3300		2	< 0.17	> 41	154	
CCCn1cnnc1-c1cccc(N2Cc3c(cc(N(C)C)nc3CNC)C2=O)n1	177		3500	5.2	1	0.27	29	97	
CC[C@@H](N)c1nc(N2CCC[C@H]2C)cc2c1CN(c1cccc(-c3nnc4n3[C@@H](C)CC4)n1)C2=O	83		800	56	2.5			59	Tmax [9]: 1 h; half-life [10]: 4.3 h; bioavailability [11]: 20%; clearance [12]: 0.84 L/h/kg; bioavailability [13]: 38%; CL free [14]: 8.58 L/h/kg; Vdss [15]: 3.7 L/kg; half-life [16]: 3.3 h; CL free [17]: 41.4 L/h/kg; Vdss [18]: 4.9 L/kg; Tmax [19]: 2 h; solubility kinetic at 24 h [6]: 260 µM (≈ 123 µg/mL); clearance [20]: 2.34 L/h/kg
CCC(C)n1cnnc1-c1cccc(NC(=O)c2cccc3c2OCC(N)C3)n1 (stereo not drawn)		> 230			1.7	2.2			half-life [21]: 3.38 h
CNCc1nc(N(C)C)cc2c1CN(c1cccc(-c3nncn3[C@@H](C)CC(F)(F)F)n1)C2=O		> 260			1.3	< 0.05			
COc1ccc2c(c1CN)CN(c1cccc(-c3nncn3[C@@H](C)CC(F)(F)F)n1)C2=O	29	> 140		< 2.3	0.7	2.5			solubility kinetic at 24 h [6]: 372 µM (≈ 166 µg/mL)
CC(C)n1cnnc1-c1cccc(N2Cc3c(CO)cccc3C2=O)n1		> 13			2.1	22			solubility kinetic at 24 h [6]: < 0.1 µM
CC(C)n1cnnc1-c1cccc(N2Cc3c(CN)cccc3C2=O)n1		> 3			0.7	194			half-life [21]: > 6 h; solubility kinetic at 24 h [6]: > 600 µM
CNCc1cc(OC)cc2c1CN(c1cccc(-c3nncn3C(C)C)n1)C2=O	270	> 470	1700	10	1.1	1.1	5		solubility kinetic at 24 h [6]: 495 µM (≈ 194 µg/mL)
CC[C@@H](N)c1nc(N2CCC[C@H]2C)cc2c1CN(c1cccc(-c3nncn3CC)n1)C2=O			2200		2.3	< 0.09	42	142	
CCCn1cnnc1-c1cccc(N2Cc3c(cc(N(C)C(C)C)nc3CNC)C2=O)n1	193		2100	15	2	< 0.13	24	74	
COc1ccc(CC#N)cc1C(=O)Nc1cccc(-c2nncn2C(C)C)n1		6			2.3	14			
CC[C@H](C)n1cnnc1-c1cccc(NC(=O)c2cccc3c2nc(CN)n3C)n1		37			2	2.7			half-life [21]: 2.1 h
CNCc1nc(N(C)C)cc2c1CN(c1cccc(-c3nncn3C(C)C)n1)C2=O		1600			0.8	0.15			
